Nine molecules from patent US6489316B2, “6-(spirocyclopropyl) penicillanic acid 4, 4-dioxides” (priority 2000, dated 2002) can be followed below.

Experiment [1] addresses Class C(AmpC) beta-lactamase (UniProt P00811). Put plainly: beta-lactamase inhibition, spectrophotometric with nitrocefin. The experiment is classed as biochemical. As to conditions: for IC50: 10-minute preincubation of enzyme with inhibitor at 25° C., nitrocefin substrate; for inhibition of class C(AmpC) enzymes, in words: summary of Table I.
The target in experiment [2] is Class A(TEM-1) beta-lactamase (Escherichia coli, UniProt P62593). The description is as above. As to conditions: for IC50: 10-minute preincubation of enzyme with inhibitor at 25° C., nitrocefin substrate; for inhibition of class A(TEM-1) enzymes, in words: summary of Table I. The experiment is classed as biochemical.
Sequence of Class A(TEM-1) beta-lactamase (P62593 24-286 limits assumed): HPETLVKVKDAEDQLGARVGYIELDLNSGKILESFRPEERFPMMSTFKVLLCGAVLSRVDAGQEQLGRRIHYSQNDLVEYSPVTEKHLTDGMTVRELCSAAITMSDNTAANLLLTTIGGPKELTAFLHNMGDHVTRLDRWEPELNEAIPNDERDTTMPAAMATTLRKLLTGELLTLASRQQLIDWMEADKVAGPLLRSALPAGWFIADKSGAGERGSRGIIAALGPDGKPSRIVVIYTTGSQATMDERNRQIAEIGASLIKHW
Experiment [3] concerns E. coli + (AmpC). Kind of experiment: microbial assay, MIC in broth, antibiotic with inhibitor 1:1. The experiment is classed as cell-based. The note with it: Escherichia coli, serial two-fold dilutions. On the procedure: (§1) Representative Example 9 was tested in a microbial assay in combination with the penicillin antibiotic Piperacillin. In these tests, minimum inhibitory concentration(MIC) are determined in broth using serial two-fold dilutions with a 1:1 ratio of Piperacillin to inhibitor(N. A. Kuck; N. V. Jacobs; P. J. Peterson; W. J. Weiss; and R. T. Testa, in “Antimicrobial Agents and Chemotherapy”, Vol. 33, 1989, pages 1964-1969).

The test system of experiment [4] is E. coli 300 + (AmpC). The description is as above. The experiment is classed as cell-based. As to conditions: for MIC: Escherichia coli, Table II, combinations 1:1 ratio antibiotic to inhibitor. On the procedure:
as §1

Experiment [5] concerns E. coli GC 6265 (TEM-1). The description is as above. The experiment is classed as cell-based. The note with it: for MIC: Escherichia coli, Table II, combinations 1:1 ratio antibiotic to inhibitor. On the procedure:
as §1

Experiment [6] has as its system P. aeroginosa (AmpC derepressed). Described as above. The class given is cell-based. The note with it: serial two-fold dilutions. The protocol:
as §1

For experiment [7], the system named is S. marcescens (AmpC). The experiment is described as above. The experiment is classed as cell-based. The note with it: Serratia marcescens, serial two-fold dilutions. On the procedure: as §1
In experiment [8] the test system is E. coli + (TEM-1). The description is as above. The note with it: Table III, serial two-fold dilutions, combinations 1:1 ratio Piperacillin to inhibitor. The class given is cell-based. The protocol: as §1
Experiment [9] deals with Class B(Imi-1) beta-lactamase (Enterobacter cloacae, UniProt Q46991). Put plainly: beta-lactamase inhibition, spectrophotometric with nitrocefin. The class given is biochemical. As to conditions: 10-minute preincubation of enzyme with inhibitor at 25° C., nitrocefin substrate.
Sequence of Class B(Imi-1) beta-lactamase (Q46991 entry or part of it): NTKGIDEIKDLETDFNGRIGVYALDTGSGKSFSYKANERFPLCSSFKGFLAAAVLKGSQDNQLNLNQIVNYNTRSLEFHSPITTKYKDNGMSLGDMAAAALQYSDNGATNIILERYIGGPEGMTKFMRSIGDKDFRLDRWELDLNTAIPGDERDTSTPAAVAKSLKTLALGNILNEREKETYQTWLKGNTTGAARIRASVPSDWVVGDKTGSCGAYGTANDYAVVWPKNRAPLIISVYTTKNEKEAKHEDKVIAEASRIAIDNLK
Setting [10] is: Table II, combinations 1:1 ratio antibiotic to inhibitor.
The mark [11] stands for this setting: broth, serial two-fold dilutions.
Where [12] appears, read: Table II, combinations 1:1 ratio antibiotic to inhibitor, read-out: MIC P. aeroginosa (AmpC derepressed).
The mark [13] stands for this setting: Table III, combinations 1:1 ratio Piperacillin to inhibitor.
[14] abbreviates: Table III, broth, serial two-fold dilutions, combinations 1:1 ratio Piperacillin to inhibitor.
Where [15] appears, read: summary of Table II, combined with piperacillin or cefotaxime.

Like-named read-outs stand apart in the source and are kept apart here.

On to `CC1(C)C(C(=O)O)N2C(=O)C3(CC3OC3CCCCC3)C2S1(=O)=O` (single isomer, unassigned) [Example 14], for which the IC50 (usually the concentration that gives 50% inhibition) in experiment [1] was found to be 3160 nM; in [2] (IC50 Class A(TEM-1)), 130000 nM.

On to `CO/N=C(\C(=O)N[C@@H]1C(=O)N2C(C(=O)O)=C(COC(C)=O)CS[C@H]12)c1csc(N)n1` [Cefotaxime, cefotaxime], for which the MIC (as a rule, the least concentration at which growth counts as inhibited) in [3] (setting [10]) is greater than 64 µg/mL; in [4] (setting [11]) it was 16 µg/mL; in [5] (setting [11]) it was 64 µg/mL; in experiment [6] (setting [12]) it was greater than 64 µg/mL; in [7] (setting [10]), 8 µg/mL.

With `CC(C)(C)[Si](C)(C)OC1C[C@@]12C(=O)N1[C@@H](C(=O)O)C(C)(C)S(=O)(=O)[C@@H]12` (single isomer, unassigned) [Example 8], the IC50 turned out to be 1900 nM in experiment [1] and 17000 nM in [2] (IC50 Class A(TEM-1)).

For the molecule `CC1(C)C(C(=O)O)N2C(=O)C3(CC3OC3CCCCC3)C2S1(=O)=O` (single isomer, unassigned) [Example 12], the IC50 in [1] turned out to be 32000 nM; in experiment [2] (IC50 Class A(TEM-1)) it was 1700 nM.

As to `CC1(C)C(C(=O)O)N2C(=O)C3(CC3OC3CCCCC3)C2S1(=O)=O` (single isomer, unassigned) [Example 13], in [1], inhibition was half-maximal at 37 nM (IC50) and the “inhibition of class C(AmpC) enzymes, in words” value is reported as “very potent inhibitors”. Moreover, half-maximal inhibition in [2] (IC50 Class A(TEM-1)) (IC50) required 510 nM. Also, in experiment [2], the “inhibition of class A(TEM-1) enzymes, in words” value is on record as “potent inhibitors”.

In the case of `CC1(C)[C@H](C(=O)O)N2C(=O)C[C@H]2S1(=O)=O` [Sulbactam, reference compound], inhibition in experiment [1] was half-maximal at 65900 nM (IC50).

Consider `CCN1CCN(C(=O)N[C@@H](C(=O)N[C@@H]2C(=O)N3[C@@H]2SC(C)(C)[C@@H]3C(=O)O)c2ccccc2)C(=O)C1=O` [Piperacillin], for which the minimal inhibitory concentration (MIC) in experiment [3] (setting [10]) was greater than 64 µg/mL; in [3] (setting [13]), 32 µg/mL; in experiment [4] (setting [11]), 32 µg/mL; in experiment [5] (setting [11]) it was greater than 64 µg/mL; in experiment [6] (setting [12]), greater than 64 µg/mL; in experiment [6] (Table III, combinations 1:1 ratio Piperacillin to inhibitor, read-out: MIC P. aeroginosa), greater than 64 µg/mL. Also, the MIC worked out at 32 µg/mL in experiment [7] (setting [10]) and 64 µg/mL in experiment [7] (setting [13]). Besides, in [8], the “MIC E. coli + (TEM-1)” value was greater than 64 µg/mL. Also, the “MIC E. coli 300 + (AmpC)” value in experiment [4] (setting [14]) stood at 32 µg/mL. Besides, the “MIC E. coli GC 6265 (TEM-1)” value in experiment [5] (setting [14]) is greater than 64 µg/mL.

With `CC(C)(C)[Si](C)(C)O[C@H]1C[C@]12C(=O)N1[C@@H](C(=O)[O-])C(C)(C)S(=O)(=O)[C@@H]12.[Na+]` [Example 9, (1R,2S,5R)-2-[(tert-Butyldimethylsilyl)oxy]-3,3-dimethyl-7-oxospiro[cyclopropane-1,6-[4]thia[1]azabicyclo[3.2.0]-heptane]-2-carboxylic acid, Sodium Salt, 4,4-dioxide], the IC50 was 21 nM in [1], 650 nM in [2] (read-out: IC50 Class A(TEM-1)) and 12000 nM in [9]. Moreover, the “inhibition of class C(AmpC) enzymes, in words” value in experiment [1] is “very potent inhibitors”. Moreover, the “inhibition of class A(TEM-1) enzymes, in words” value in experiment [2] is listed as “potent inhibitors”. Moreover, the “activity as a beta-lactamase inhibitor with E.coli 300+(AmpC), in words” value in experiment [4] (setting [15]) was “very potent activity”. The “activity as a beta-lactamase inhibitor with E.coli GC6265 (TEM-1), in words” value in [5] (setting [15]) is recorded as “very potent activity”.

For `CC(C)(C)[Si](C)(C)OC1CC12C(=O)N1[C@@H](C(=O)O)C(C)(C)S(=O)(=O)[C@@H]12` (single isomer, unassigned) [Example 10], in [1], half-maximal inhibition (IC50) required 343 nM and the “inhibition of class C(AmpC) enzymes, in words” value was “very potent inhibitors”. This molecule also had a concentration for half-maximal inhibition (IC50) in [2] (IC50 Class A(TEM-1)) of 12000 nM.
